Literature values, collected in patent publication US20040223951A1, “Combination therapy for cancer” (Schering Corporation, priority 2000, published 2004).

Experiments:
[1] = administered orally

bioavailability [1]: approximately 100%
SMILES: Cn1nnc2c(C(N)=O)ncn2c1=O [Temozolomide, 3,4-dihydro-3-methyl-4-oxoimidazo-[5,1-d]1,2,3,4-tetrazin-8-carboximide]
plasma concentration of active metabolite MTIC versus conventional dosing (extended daily dosing of TMZ, Brock et al. Cancer Res. 1998;58:4363): higher plasma concentration of the active metabolite MTIC than conventional dosing | plasma concentrations of MTIC versus DTIC (oral TMZ compared with IV DTIC): higher plasma concentrations of MTIC than IV administration of DTIC | clinical response, % of patients with advanced melanoma (advanced melanoma; Journal of Clinical Oncology, Vol. 13, No. 4, 1995, pp. 910-913): 21% | clinical responses, % of patients having advanced melanoma (advanced melanoma; Newlands ES, et al., Br J Cancer 65 (2) 287-291, 1992): 17%
